# Tested on: AMPK
# Test: AMPK phosphorylation in C2C12 myocytes (Western blot, Phospho-AMPKα Thr172)
# Format: cell-based, mouse
# Description: C2C12 skeletal myoblast cell line was purchased from the Food Industry Research and Development Institute (Hsinchu, Taiwan). The C2C12 cell line was a cell line obtained from culturing the leg skeletal muscle of adult C3H mice in a cell incubator under 95% […], 5% CO2, and 37° C. The cells were cultured in a DMEM medium (Gibco/Invitrogen, Carlsbad, Calif.) containing 4.5 mg/mL glucose, 10% fetal bovine serum (FBS; Gibco/Invitrogen, Carlsbad, Calif.), and an antibiotic solution (with final concentrations of penicillin=100 IU/mL and streptomycin=100 μg/mL). When the C2C12 myoblast cells have proliferated to cover seven-tenths of the area in the petri dish, the fetal bovine serum was replaced by 2% horse serum (Gibco/Invitrogen, Carlsbad, Calif.) so as to induce the C2C12 myoblast cells to become the multi-nuclei myocytes. The C2C12 myoblast cells differentiated into myocytes in 4 days, and the culture medium of the cells was replaced with no-serum DMEM 24 hours before the experiments so as to reduce metabolism of the cells.
# The C2C12 myocytes were treated respectively with 1 μM, 3 μM and 10 μM 1,10-dihydroxyaporphine hydrobromide for 5 and 15 minutes. Then the C2C12 myocytes were rinsed with PBS buffer solution, and RIPA buffer solution containing protease inhibitors (20 mM Tris-HCl (pH 7.4), 100 mM NaCl, 1 mM EDTA, 1 mM EGTA, 0.1% SDS, 0.5% sodium deoxycholate, 1% NP-40, and 100× protease inhibitor cocktail) was added into the cells. The cells were collected and centrifuged on ice. Then, the concentrations of the supernatant samples were adjusted to be the same.
# The supernatant samples were put through vertical electrophoresis isolation with 8% SDS-PAGE, and the isolated proteins were transferred onto a PVDF blotting membrane. After blotting was completed, the PVDF blotting membrane was removed and blocked for 1 hour under room temperature with a blocking buffer of TBST (Tris-buffered saline with Tween-20) with 5% non-fat milk. Then, the PVDF blotting membrane was placed into a 5% BSA and TBST solution containing the primary monoclonal antibodies Phospho-AMPKα (Thr172) (Cell Signaling) (1:1000) and AMPKα […] (Cell Signaling) (1:1000), respectively, and the primary immunoblotting reaction was performed under 4° C. Then, the PVDF blotting membrane was rinsed 3 times with TBST, and a TBST solution containing the secondary antibody goat anti-rabbit IgG (Perkin Elmer) (1:10000) was added to perform the secondary reaction for one hour under room temperature. Finally, the membrane was rinsed 3 times with TBST before ECL (enhanced chemiluminescence) was added to present color.
smiles,measurement,setting,value
"Br.CN1CCc2ccc(O)c3c2C1Cc1ccc(O)cc1-3 (stereo not shown) [1,10-dihydroxyaporphine hydrobromide]","AMPK phosphorylation, times of that in the control cells","3 μM, 5 minutes",1.33 times
same,"AMPK phosphorylation, times of that in the control cells","3 μM, 15 minutes",1.21 times
same,"AMPK phosphorylation, times of that in the control cells","10 μM, 5 minutes",1.23 times
same,"AMPK phosphorylation, times of that in the control cells","10 μM, 15 minutes",1.65 times

# From US20150342933A1, “APORPHINE ALKALOID DERIVATIVE FOR […]-DEPENDENT PROTEIN KINASE” (ZIH YUAN TANG Biotechnology Co., Ltd, priority 2014, published 2015)
